From patent publication EP4692061A1, “LOW-MOLECULAR-WEIGHT COMPOUND HAVING CEREBLON-BINDING ACTIVITY, AND USE THEREOF” (Aevis Bio, Inc., priority 2023, dated 2024)
Where two headings read alike, the source gives them in different places.

Experiments:
MM.1S = assay: Tumor cell viability, CCK-8 assay, MM.1S; type: cell-based; conditions: MM.1S (human multiple myeloma); compound treatment 1uM; 5 days
Experimental: (§1) To examine whether the compounds having CRBN-binding activity according to the present invention exert tumor cell apoptosis effects, the assay was conducted using various human cancer cell lines, including human multiple myeloma cell lines (MM.1S and MM.1R-LR), a human breast cancer cell line (MDA-MB-231), a human lung cancer cell line (A549), a human rhabdomyosarcoma cell line (RD), and a human lymphoma cell line (Jeko-1).
(§2) The MM.1S, MM.1R-LR, MDA-MB-231, A549, RD, and Jeko-1 cell lines were obtained from the American Type Culture Collection (ATCC, Manassas, VA, USA) and cultured in RPMI 1640 medium (Corning, MD, USA) or DMEM (Corning, MD, USA) supplemented with 10% fetal bovine serum (FBS) (Corning, MD, USA), 100 U/mL penicillin (Corning, MD, USA), and 100 µg/mL streptomycin (Corning, MD, USA) at 37°C in a 5% CO2 incubator for 24 hours. The cells were seeded at a density of 1 × 10^4 cells/well in 96-well plates and incubated for 24 hours. After incubation, the test compounds dissolved in dimethyl sulfoxide (DMSO, CAS No.: 67-68-5) were serially diluted to a final concentration of 10 µM and applied to the cells. Following an additional incubation for 2 to 5 days, the analysis was performed using a CCK-8 assay kit (Dojindo, Japan) according to the manufacturer's instructions.

MDA-MB-231 = assay: Tumor cell viability, CCK-8 assay, MDA-MB-231; type: cell-based; conditions: MDA-MB-231 (human breast cancer); compound treatment 1uM; 2 days
Experimental: as §1, §2

A549 = assay: Tumor cell viability, CCK-8 assay, A549; type: cell-based; conditions: A549 (human lung cancer); compound treatment 1uM; 2 days
Experimental: as §1, §2

MM.1R-LR = assay: Tumor cell viability, CCK-8 assay, MM.1R-LR; type: cell-based; conditions: MM.1R-LR (drug-resistant human multiple myeloma); compound treatment 1uM; 5 days
Experimental: as §1, §2

cereblon (CRBN) = cereblon (CRBN) (Homo sapiens, UniProt Q96SW2); assay: In vitro CRBN binding assay (AlphaScreen, competitive inhibition of the PROTAC assay)
Jeko-1 = assay: Tumor cell viability, CCK-8 assay, Jeko-1; type: cell-based; conditions: Jeko-1 (human lymphoma); compound treatment 1uM; 3 days
Experimental: as §1, §2

RD = assay: Tumor cell viability, CCK-8 assay, RD; type: cell-based; conditions: RD (human rhabdomyosarcoma); compound treatment 1uM; 3 days
Experimental: as §1, §2

[1] = Table 1, AlphaScreen, PROTAC Optimization Kit for BET Bromodomain-Cereblon Binding, read-out: Alpha IC50

Row | SMILES | Cell viability (% of control) (MM.1S) | Cell viability (% of control) (MM.1R-LR) | IC50 (cereblon (CRBN); [1]) [nM] | further results
1 | CCc1ccc(C(=O)Nc2cccc(S(=O)(=O)Nc3cccc(C4CCC(=O)NC4=O)c3)c2)cc1 (stereo not shown) [AEV41010, N-(3-(N-(3-(2,6-dioxopiperidin-3-yl)phenyl)sulfamoyl)phenyl)-4-ethylbenzamide] | 88.4 % of control | 66.1 % of control | 420 | Cell viability (% of control) (MDA-MB-231): 95.7 % of control; Cell viability (% of control) (A549): 96.7 % of control
2 | CCCCCc1ccc(C(=O)Nc2cccc(S(=O)(=O)Nc3cccc(C4CCC(=O)NC4=O)c3)c2)cc1 (stereo not shown) [AEV41013, N-(3-(N-(3-(2,6-dioxopiperidin-3-yl)phenyl)sulfamoyl)phenyl)-4-pentylbenzamide] | 15.3 % of control | 55.2 % of control | 360 | Cell viability (% of control) (Jeko-1): 11.8 % of control; Cell viability (% of control) (MDA-MB-231): 38.5 % of control; Cell viability (% of control) (A549): 25.8 % of control; Cell viability (% of control) (RD): 30.0 % of control
3 | CCCCCCCc1ccc(C(=O)Nc2cccc(S(=O)(=O)Nc3cccc(C4CCC(=O)NC4=O)c3)c2)cc1 (stereo not shown) [AEV40204, N-(3-(N-(3-(2,6-dioxopiperidin-3-yl)phenyl)sulfamoyl)phenyl)-4-heptylbenzamide] | 3.3 % of control | 49.4 % of control | 440 | Cell viability (% of control) (Jeko-1): 11.6 % of control; Cell viability (% of control) (MDA-MB-231): 40.4 % of control; Cell viability (% of control) (A549): 33.6 % of control; Cell viability (% of control) (RD): 50.8 % of control
4 | CCCCc1ccc(C(=O)Nc2cccc(S(=O)(=O)Nc3cccc(C4CCC(=O)NC4=O)c3)c2)cc1 (stereo not shown) [AEV41012, 4-butyl-N-(3-(N-(3-(2,6-dioxopiperidin-3-yl)phenyl)sulfamoyl)phenyl)benzamide] | 7.4 % of control | 56.7 % of control | 940 | Cell viability (% of control) (Jeko-1): 37.7 % of control; Cell viability (% of control) (MDA-MB-231): 78.7 % of control; Cell viability (% of control) (A549): 94.0 % of control; Cell viability (% of control) (RD): 79.7 % of control
5 | O=C1CCC(c2cccc(NS(=O)(=O)c3cccc(NC(=O)c4ccc(Cl)cc4)c3)c2)C(=O)N1 (stereo not shown) [AEV41 001, 4-chloro-N-(3-(N-(3-(2,6-dioxopiperidin-3-yl)phenyl)sulfamoyl)phenyl)benzamide] | 88.3 % of control | 78.4 % of control | 1230 | 
6 | Cc1ccc(C(=O)Nc2cccc(S(=O)(=O)Nc3cccc(C4CCC(=O)NC4=O)c3)c2)cc1 (stereo not shown) [AEV41009, N-(3-(N-(3-(2,6-dioxopiperidin-3-yl)phenyl)sulfamoyl)phenyl)-4-methylbenzamide] | 92.9 % of control | 81.3 % of control | 540 | 
7 | CCCc1ccc(C(=O)Nc2cccc(S(=O)(=O)Nc3cccc(C4CCC(=O)NC4=O)c3)c2)cc1 (stereo not shown) [AEV41011, N-(3-(N-(3-(2,6-dioxopiperidin-3-yl)phenyl)sulfamoyl)phenyl)-4-propylbenzamide] | 56.9 % of control | 66.1 % of control | 700 | Cell viability (% of control) (MDA-MB-231): 96.7 % of control; Cell viability (% of control) (A549): 98.9 % of control
8 | O=C1CCC(c2cccc(NS(=O)(=O)c3cccc(NC(=O)c4ccc(CCCl)cc4)c3)c2)C(=O)N1 (stereo not shown) [AEV41003, 4-(2-chloroethyl)-N-(3-(N-(3-(2,6-dioxopiperidin-3-yl)phenyl)sulfamoyl)phenyl)benzamide] | 92.1 % of control | 79.9 % of control | 770 | Cell viability (% of control) (MDA-MB-231): 97.0 % of control; Cell viability (% of control) (A549): 104.0 % of control
9 | Cc1ccc(NC(=O)Nc2cccc(S(=O)(=O)Nc3cccc(C4CCC(=O)NC4=O)c3)c2)cc1Cl (stereo not shown) [AEV40181] |  |  |  | IC50 (cereblon (CRBN)): 320 nM
10 | O=C1CCC(c2cccc(NS(=O)(=O)c3cccc(NC(=O)c4ccc(Cl)cc4Cl)c3)c2)C(=O)N1 (stereo not shown) [AEV40150] |  |  | 1820 | 
11 | O=C1CCC(c2cccc(NC(=O)c3cccc4[nH]ccc34)c2)C(=O)N1 (stereo not shown) [AEV40191] |  |  | 480 | 
12 | Cc1ccc(C(=O)Nc2cccc(C3CCC(=O)NC3=O)c2)c(C)c1 (stereo not shown) [AEV40165] |  |  | 930 | 
13 | O=C1CCC(c2cccc(NS(=O)(=O)c3cccc4ccccc34)c2)C(=O)N1 (stereo not shown) [AEV40048] |  |  | 790 | 
14 | O=C1CCC(c2ccc3c(c2)OCCN(c2cccc(NC(=O)C4(C(=O)Nc5ccc(F)cc5)CC4)c2)C3=O)C(=O)N1 (stereo not shown) [AEV40215] |  |  | 2160 | 
15 | O=C1CCC(c2cccc(NC(=O)c3ccccc3-c3ccccc3)c2)C(=O)N1 (stereo not shown) [AEV40218] |  |  | 440 | 
16 | COCCN1Cc2cc(C3CCC(=O)NC3=O)ccc2C1=O (stereo not shown) [AEV40042] |  |  | 5400 | 
17 | Cn1cc(Cl)c(C(=O)Nc2cccc(C3CCC(=O)NC3=O)c2)n1 (stereo not shown) [AEV40188] |  |  | 1000 | 
18 | O=C1CCC(c2cccc(NS(=O)(=O)c3cccc(NCc4cc5ccccc5[nH]4)c3)c2)C(=O)N1 (stereo not shown) [AEV40163] |  |  | 1430 | 
19 | O=C1CCC(c2cccc(NC(=O)c3ccc(Cl)cc3)c2)C(=O)N1 (stereo not shown) [AEV40139] |  |  | 2120 | 
20 | O=C1CCC(c2cccc(NC(=O)c3ccc(F)cc3)c2)C(=O)N1 (stereo not shown) [AEV40140] |  |  | 1830 | 
21 | O=C1CCC(c2cccc(NS(=O)(=O)c3cccc(NC(=O)c4ccccc4C(F)(F)F)c3)c2)C(=O)N1 (stereo not shown) [AEV40152] |  |  | 720 | 
